Literature values in patent US20260053818A1, “PHARMACEUTICAL FORMULATION FOR THE TREATMENT OF INFLAMMATORY CHANGES TO THE RECTUM” (Dr. Falk Pharma GmbH, priority 2015, published 2026).
Converted amounts (≈) assume the structure as drawn.

Details: Merck Index

solubility in water: 14 µg/mL (≈ 32.5 µM)
Compound: CCCC1O[C@@H]2C[C@H]3[C@@H]4CCC5=CC(=O)C=C[C@]5(C)[C@H]4[C@@H](O)C[C@]3(C)[C@]2(C(=O)CO)O1 (stereo partly shown) [budesonide]
